Data as given in ChEMBL document CHEMBL3390834, “Development of second generation epigenetic agents” (Medchemcomm, 2012).

Target: Histone deacetylase 2 (Homo sapiens, UniProt Q92769)
Assay: Inhibition of recombinant human HDAC-2 expressed in baculovirus infected insect Sf9 cells using Fluor de Lys as substrate preincubated for 2 hrs followed by substrate addition measured after 10 mins by fluorescence assay

Histone deacetylase 2, sequence (Q92769 whole entry): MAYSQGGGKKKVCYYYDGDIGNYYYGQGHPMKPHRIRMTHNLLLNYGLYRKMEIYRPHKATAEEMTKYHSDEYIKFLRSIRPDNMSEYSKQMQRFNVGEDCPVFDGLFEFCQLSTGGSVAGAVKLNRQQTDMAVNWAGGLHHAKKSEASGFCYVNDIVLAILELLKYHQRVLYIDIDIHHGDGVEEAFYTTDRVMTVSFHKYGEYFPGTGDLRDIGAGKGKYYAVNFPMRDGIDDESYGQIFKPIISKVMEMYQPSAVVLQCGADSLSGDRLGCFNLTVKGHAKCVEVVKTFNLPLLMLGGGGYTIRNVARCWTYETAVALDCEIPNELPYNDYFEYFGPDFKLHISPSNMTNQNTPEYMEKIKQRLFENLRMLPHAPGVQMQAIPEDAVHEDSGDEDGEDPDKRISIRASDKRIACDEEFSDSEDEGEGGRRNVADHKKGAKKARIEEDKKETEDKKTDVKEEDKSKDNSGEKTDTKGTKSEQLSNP

Ki: 16 nM
SMILES: CCCCc1nc2cc(/C=C/C(=O)NO)ccc2n1CCN(CC)CC [PRACINOSTAT]
